Inconclusive results and toxic doses are left out.
Tested on: CD2F1 mice, L1210 leukemia ip, survival T/C
Test: NCI In Vivo Anticancer Drug Screen. Data for tumor model L1210 Leukemia (intraperitoneal) in CD2F1 (CDF1) mice
Details: higher = longer survival
How it was run: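 In this screen, transplantable tumors were grown in mice given either the compound or its vehicle. Results were expressed as the treated measurement relative to the control measurement.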

[1] = endpoint: mean survival time, dose: 100.0 mg/kg/injection, schedule: Q01DX009 (ip), vehicle: saline with Tween-80
[2] = endpoint: mean survival time, dose: 100.0 mg/kg/injection, schedule: Q04DX003 (ip), vehicle: saline with Tween-80
[3] = endpoint: mean survival time, dose: 200.0 mg/kg/injection, schedule: Q01DX009 (ip), vehicle: saline with Tween-80
[4] = endpoint: mean survival time, dose: 200.0 mg/kg/injection, schedule: Q04DX003 (ip), vehicle: saline with Tween-80
[5] = endpoint: mean survival time, dose: 400.0 mg/kg/injection, schedule: Q04DX003 (ip), vehicle: saline with Tween-80

SMILES: CCC(/C=C/C1OC(=O)C=CC1C)=C\C(C)C/C=C/C(C)=C/C(C)C(=O)C(C)C(O)C(C)C/C(C)=C/C(=O)O (stereo not drawn)
- T/C (endpoint: median survival time, dose: 6.25 micrograms/kg/injection, schedule: Q01DX005 (ip), vehicle: saline + alcohol): 120 % of control
- T/C (endpoint: median survival time, dose: 12.5 micrograms/kg/injection, schedule: Q01DX005 (ip), vehicle: saline + alcohol): 119 % of control
- T/C (endpoint: median survival time, dose: 12.5 micrograms/kg/injection, schedule: Q01DX009 (ip), vehicle: saline + alcohol): 101 % of control
- T/C (endpoint: median survival time, dose: 25.0 micrograms/kg/injection, schedule: Q01DX005 (ip), vehicle: saline + alcohol): 120 % of control
- T/C (endpoint: median survival time, dose: 25.0 micrograms/kg/injection, schedule: Q01DX009 (ip), vehicle: saline + alcohol): 101 % of control
- T/C (endpoint: median survival time, dose: 50.0 micrograms/kg/injection, schedule: Q01DX009 (ip), vehicle: saline + alcohol): 115 % of control

SMILES: C=CCS(=O)[O-].[C-]#[O+].[C-]#[O+].[Fe+6].[c-]1[c-][c-][cH-][c-]1
- T/C (endpoint: mean survival time, dose: 12.5 mg/kg/injection, schedule: Q04DX002 (ip), vehicle: saline): 97 % of control
- T/C (endpoint: mean survival time, dose: 25.0 mg/kg/injection, schedule: Q04DX002 (ip), vehicle: saline): 102 % of control
- T/C (endpoint: mean survival time, dose: 50.0 mg/kg/injection, schedule: Q04DX002 (ip), vehicle: saline): 100 % of control

SMILES: CCCNCCN(CC)CC
- T/C (endpoint: mean survival time, dose: 50.0 mg/kg/injection, schedule: Q01DX009 (ip), vehicle: saline): 96 % of control
- T/C (endpoint: mean survival time, dose: 100.0 mg/kg/injection, schedule: Q01DX009 (ip), vehicle: saline): 93 % of control
- T/C (endpoint: mean survival time, dose: 100.0 mg/kg/injection, schedule: Q04DX003 (ip), vehicle: saline): 100 % of control
- T/C (endpoint: mean survival time, dose: 200.0 mg/kg/injection, schedule: Q01DX009 (ip), vehicle: saline): 96 % of control
- T/C (endpoint: mean survival time, dose: 200.0 mg/kg/injection, schedule: Q04DX003 (ip), vehicle: saline): 96 % of control

SMILES: O=C(O)c1ccccc1C(=O)Nc1cc(C(F)(F)F)ccc1Cl
- T/C [1]: 104 % of control
- T/C [2]: 105 % of control
- T/C [3]: 96 % of control
- T/C [4]: 105 % of control
- T/C [5]: 111 % of control

SMILES: CC(=O)C1=C(C)NC(C)=C(C(C)=O)C1C
- T/C [1]: 100 % of control
- T/C [2]: 93 % of control
- T/C [3]: 95 % of control
- T/C [4]: 97 % of control
- T/C [5]: 92 % of control

SMILES: CC(C)(C)OC(=O)NC(C(=O)O)C1=CCC=CC1 (stereo not drawn)
- T/C (endpoint: mean survival time, dose: 25.0 mg/kg/injection, schedule: Q01DX009 (ip), vehicle: other): 100 % of control
- T/C (endpoint: mean survival time, dose: 50.0 mg/kg/injection, schedule: Q01DX009 (ip), vehicle: other): 96 % of control
- T/C (endpoint: mean survival time, dose: 50.0 mg/kg/injection, schedule: Q04DX002 (ip), vehicle: other): 101 % of control
- T/C (endpoint: mean survival time, dose: 50.0 mg/kg/injection, schedule: Q04DX003 (ip), vehicle: other): 103 % of control
- T/C (endpoint: mean survival time, dose: 100.0 mg/kg/injection, schedule: Q01DX001 (ip), vehicle: other): 106 % of control
- T/C (endpoint: mean survival time, dose: 100.0 mg/kg/injection, schedule: Q01DX009 (ip), vehicle: other): 91 % of control
- T/C (endpoint: mean survival time, dose: 100.0 mg/kg/injection, schedule: Q04DX002 (ip), vehicle: other): 101 % of control
- T/C (endpoint: mean survival time, dose: 100.0 mg/kg/injection, schedule: Q04DX003 (ip), vehicle: other): 106 % of control
- T/C (endpoint: mean survival time, dose: 200.0 mg/kg/injection, schedule: Q01DX001 (ip), vehicle: other): 99 % of control
- T/C (endpoint: mean survival time, dose: 200.0 mg/kg/injection, schedule: Q01DX009 (ip), vehicle: other): 91 % of control
- T/C (endpoint: mean survival time, dose: 200.0 mg/kg/injection, schedule: Q04DX002 (ip), vehicle: other): 94 % of control
- T/C (endpoint: mean survival time, dose: 200.0 mg/kg/injection, schedule: Q04DX003 (ip), vehicle: other): 97 % of control
- T/C (endpoint: mean survival time, dose: 400.0 mg/kg/injection, schedule: Q01DX001 (ip), vehicle: other): 99 % of control
- T/C (endpoint: mean survival time, dose: 400.0 mg/kg/injection, schedule: Q04DX002 (ip), vehicle: other): 101 % of control
- T/C (endpoint: mean survival time, dose: 400.0 mg/kg/injection, schedule: Q04DX003 (ip), vehicle: other): 97 % of control
- T/C (endpoint: mean survival time, dose: 600.0 mg/kg/injection, schedule: Q01DX001 (ip), vehicle: other): 96 % of control

SMILES: C[C@]12CC[C@H](O)CC1=CC[C@@H]1[C@@H]2CC[C@]2(C)C(=O)CC[C@@H]12
- T/C (endpoint: mean survival time, dose: 50.0 mg/kg/injection, schedule: Q01DX009 (ip), vehicle: Klucel (hydroxypropylcellulose) (HPC)): 98 % of control
- T/C (endpoint: mean survival time, dose: 100.0 mg/kg/injection, schedule: Q01DX009 (ip), vehicle: Klucel (hydroxypropylcellulose) (HPC)): 102 % of control
- T/C (endpoint: mean survival time, dose: 200.0 mg/kg/injection, schedule: Q01DX009 (ip), vehicle: Klucel (hydroxypropylcellulose) (HPC)): 94 % of control
- T/C (endpoint: median survival time, dose: 25.0 mg/kg/injection, schedule: Q01DX009 (ip), vehicle: saline with Tween-80): 101 % of control
- T/C (endpoint: median survival time, dose: 50.0 mg/kg/injection, schedule: Q01DX009 (ip), vehicle: saline with Tween-80): 101 % of control
- T/C (endpoint: median survival time, dose: 100.0 mg/kg/injection, schedule: Q01DX009 (ip), vehicle: saline with Tween-80): 92 % of control
- T/C (endpoint: median survival time, dose: 200.0 mg/kg/injection, schedule: Q01DX009 (ip), vehicle: saline with Tween-80): 92 % of control
- T/C (endpoint: median survival time, dose: 400.0 mg/kg/injection, schedule: Q01DX009 (ip), vehicle: saline with Tween-80): 91 % of control

SMILES: CCCCn1ccnc1C
- T/C (endpoint: mean survival time, dose: 6.25 mg/kg/injection, schedule: Q01DX009 (ip), vehicle: saline): 102 % of control
- T/C (endpoint: mean survival time, dose: 6.25 mg/kg/injection, schedule: Q04DX003 (ip), vehicle: saline): 94 % of control
- T/C (endpoint: mean survival time, dose: 12.5 mg/kg/injection, schedule: Q01DX009 (ip), vehicle: saline): 103 % of control
- T/C (endpoint: mean survival time, dose: 12.5 mg/kg/injection, schedule: Q04DX003 (ip), vehicle: saline): 94 % of control
- T/C (endpoint: mean survival time, dose: 25.0 mg/kg/injection, schedule: Q01DX009 (ip), vehicle: saline): 103 % of control
- T/C (endpoint: mean survival time, dose: 25.0 mg/kg/injection, schedule: Q04DX003 (ip), vehicle: saline): 94 % of control

SMILES: CC1CC(=O)C(CCC#N)=C(O)C1 (stereo not drawn)
- T/C [2]: 94 % of control
- T/C [4]: 91 % of control
- T/C [5]: 91 % of control

SMILES: COc1ccccc1C1N(C)CCCN1C
- T/C (endpoint: mean survival time, dose: 6.25 mg/kg/injection, schedule: Q01DX009 (ip), vehicle: saline with Tween-80): 100 % of control
- T/C (endpoint: mean survival time, dose: 12.5 mg/kg/injection, schedule: Q01DX009 (ip), vehicle: saline with Tween-80): 102 % of control
- T/C (endpoint: mean survival time, dose: 25.0 mg/kg/injection, schedule: Q01DX009 (ip), vehicle: saline with Tween-80): 102 % of control

SMILES: CCOC(=O)Nc1ccc2nnn(C3OC(CO)C(O)C3O)c2n1 (stereo not drawn)
- T/C (endpoint: mean survival time, dose: 12.5 mg/kg/injection, schedule: Q01DX005 (ip), vehicle: water): 94 % of control
- T/C (endpoint: mean survival time, dose: 25.0 mg/kg/injection, schedule: Q01DX005 (ip), vehicle: water): 102 % of control
- T/C (endpoint: mean survival time, dose: 50.0 mg/kg/injection, schedule: Q01DX005 (ip), vehicle: water): 98 % of control
- T/C (endpoint: mean survival time, dose: 100.0 mg/kg/injection, schedule: Q01DX005 (ip), vehicle: water): 102 % of control
- T/C (endpoint: mean survival time, dose: 200.0 mg/kg/injection, schedule: Q01DX005 (ip), vehicle: water): 94 % of control
- T/C (endpoint: mean survival time, dose: 400.0 mg/kg/injection, schedule: Q01DX005 (ip), vehicle: water): 94 % of control

SMILES: COC1OC(CNC(=O)N(C)N=O)C(O)C(O)C1O (stereo not drawn)
- T/C (endpoint: mean survival time, dose: 33.0 mg/kg/injection, schedule: Q01DX009 (ip), vehicle: saline): 120 % of control
- T/C (endpoint: mean survival time, dose: 113.0 mg/kg/injection, schedule: Q01DX009 (ip), vehicle: saline): 153 % of control

Source: PubChem BioAssay AID256 (DTP/NCI, 2004)
